# Where “and” joins values, the source holds several entries; their conditions need not be identical. Identical values can stand only once.
# Tests used:
# SPF Sprague Dawley rats = assay: Toxicity assay, intraperitoneal injection, rats; details: i.p. 20, 10 and 1 mg/kg
# Procedure: (§4) The compounds synthesized in the examples of the present invention were assayed for cytotoxicity in animals.
# Equilibrium solubility = assay type: physicochemical; details: thermodynamic from solid
# PAMPA = assay type: in vitro ADME
# [1] = Pharmacokinetic test in ICR male mice (Experimental Example 13); assay type: in vivo; details: mouse, plasma, po, P.O., 10 mg/kg
# Procedure: (§1) Intravenous administration was performed through a tube inserted into the femoral vein, and oral administration was performed using oral gavage.
# (§2) After the administration, the experimental animals' blood was taken at predetermined time intervals for 24 hours. Then, the blood was centrifuged to separate plasma. The plasma samples were pretreated with a suitable organic solvent, and then the concentration of the plasma samples was analyzed by LC-MS/MS. […] The results of noncompartmental pharmacokinetic parameters calculated from the blood concentration-time data are shown in Tables 9 through 13. In FIGS. 12 through 16, I.V. represents an intravenous administration group, P.O. represents an oral administration group, and the definition of each parameter in Tables 9 through 13 is shown in Table 14.
# pKa = assay type: physicochemical
# rats [2] = details: rat, in vivo
# [3] = Pharmacokinetic test in SD male rats (Experimental Examples 11, 12, 15); assay type: in vivo; details: plasma, rat; for Vd: read-out: Vss; for bioavailability: read-out: Ft (bioavailability)
# Procedure: as §1, §2
# [4] = test system: histidine-requiring Salmonella (strains TA98, TA100, TA1535 and TA1537) and tryptophan-requiring Escherichia coli (strain WP2uvrA (pKM101)); assay type: cell-based
# Excerpt: In addition, for each strain, the number of back-mutant colonies in the positive control group certainly exceeded twice the number of back-mutant colonies in the negative control group.
# ICR mice = assay: Toxicity assay, intraperitoneal injection, mice; details: i.p. 20, 10 and 1 mg/kg
# Procedure: as §4
# rats [5] = assay: Single-dose toxicity in rats; details: rat, in vivo
# [6] = Pharmacokinetic test in dogs (Experimental Example 14); assay type: in vivo; details: dog, plasma; for bioavailability: read-out: Ft (bioavailability)
# Procedure: as §1, §2
# [7] = Plasma protein binding, human plasma; assay type: in vitro ADME
# Procedure: (§3) Plasma stability and protein binding were measured using rat and human plasma.
# Kinetic solubility = assay type: physicochemical; details: kinetic from dmso stock
# Log P = assay type: physicochemical
# [8] = Plasma stability, human plasma; assay type: in vitro ADME
# Procedure: as §3
# hERG channel protein = hERG channel protein (Homo sapiens, UniProt Q12809); assay: hERG ligand binding assay (fluorescence polarization)
# each cell line = assay: Cytotoxicity, Cyto X cell viability assay kit; assay type: cell-based
# [9] = Plasma protein binding, rat plasma; assay type: in vitro ADME
# Procedure: as §3
# [10] = Plasma stability, rat plasma; assay type: in vitro ADME
# Procedure: as §3
# [11] = po, 5 mg/kg, P.O., 5 mg/kg (Exp. 11-2)
# [12] = po, 10 mg/kg, 10 mg/kg (Exp. 12-2)
# [13] = po, 10 mg/kg, oral 10 mg/kg in 0.5% MC (Exp. 15-1)
# [14] = po, 10 mg/kg, oral 10 mg/kg in Vehicle: 5% DMSO, 40% PEG400 and 55% DW (Exp. 15-2)
# [15] = po, 10 mg/kg, G2, PO, dissolved in a solvent
# [16] = po, 10 mg/kg, G3, PO, powder state in a capsule
# Chain of hERG channel protein (Q12809 whole entry): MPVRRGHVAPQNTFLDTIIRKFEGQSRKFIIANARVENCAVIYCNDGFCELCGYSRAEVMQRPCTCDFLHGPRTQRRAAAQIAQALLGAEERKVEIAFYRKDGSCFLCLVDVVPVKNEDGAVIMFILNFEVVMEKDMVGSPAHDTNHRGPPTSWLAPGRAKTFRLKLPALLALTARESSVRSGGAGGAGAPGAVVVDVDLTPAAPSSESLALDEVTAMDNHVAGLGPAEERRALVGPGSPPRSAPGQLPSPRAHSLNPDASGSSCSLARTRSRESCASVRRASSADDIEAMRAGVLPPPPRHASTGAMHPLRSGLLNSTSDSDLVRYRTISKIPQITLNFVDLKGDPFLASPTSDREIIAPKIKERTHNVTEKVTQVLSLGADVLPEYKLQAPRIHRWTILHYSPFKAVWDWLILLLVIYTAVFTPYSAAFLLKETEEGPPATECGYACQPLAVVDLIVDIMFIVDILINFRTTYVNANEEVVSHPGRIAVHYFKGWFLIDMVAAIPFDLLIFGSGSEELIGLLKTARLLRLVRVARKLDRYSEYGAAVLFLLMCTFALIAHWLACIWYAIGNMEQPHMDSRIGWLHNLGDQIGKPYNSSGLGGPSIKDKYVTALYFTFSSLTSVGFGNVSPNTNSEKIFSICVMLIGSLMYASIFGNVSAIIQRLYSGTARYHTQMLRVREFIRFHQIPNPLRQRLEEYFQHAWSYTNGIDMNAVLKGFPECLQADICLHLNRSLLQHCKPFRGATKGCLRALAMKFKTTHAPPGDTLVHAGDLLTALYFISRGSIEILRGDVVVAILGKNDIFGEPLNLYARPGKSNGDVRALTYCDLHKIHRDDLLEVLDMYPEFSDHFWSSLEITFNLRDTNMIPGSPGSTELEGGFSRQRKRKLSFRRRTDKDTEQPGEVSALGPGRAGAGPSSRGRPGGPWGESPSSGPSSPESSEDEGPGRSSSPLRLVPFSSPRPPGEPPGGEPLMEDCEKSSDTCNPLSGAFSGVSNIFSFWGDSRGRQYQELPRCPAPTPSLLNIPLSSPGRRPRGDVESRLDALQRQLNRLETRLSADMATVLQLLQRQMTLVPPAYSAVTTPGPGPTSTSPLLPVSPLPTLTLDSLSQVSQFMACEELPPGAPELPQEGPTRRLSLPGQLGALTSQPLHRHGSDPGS
smiles,measurement,setting,value
"O[C@@H]1[C@H](O)CS[C@H]1n1cnc2c(NCc3cccc(Cl)c3)nc(Cl)nc21 [Example 2, (2R,3R,4S)-2-(2-Chloro-6-(3-chlorobenzylamino)-9H-purin-9-yl)tetrahydrothiophen-3,4-diol]",weight gain or feed intake vs control group,SPF Sprague Dawley rats,No difference in weight gain or feed intake
same,death,SPF Sprague Dawley rats; 24 hrs observation,No death was observed
same,solubility thermodynamic,Equilibrium solubility,6.7 µM and 2.76 µg/mL
same,PAMPA,PAMPA,−4.49
same,AUC(0-inf),[1],102000 ± 13500 ng·h/mL
same,AUC(0-t),[1],100000 ± 13200 ng·h/mL
same,Cmax,[1],8570 ± 1520 ng/mL
same,Tmax,[1],6.13 ± 3.75 h
same,half-life,[1],3.61 ± 0.3 h
same,pKa,pKa,11.3
same,death after single dose,rats [2],no animals died
same,clearance,"[3]; iv, I.V., 5 mg/kg",6.05 mL/min/kg
same,Vd,"[3]; iv, I.V., 5 mg/kg",0.881 ± 0.203 L/kg
same,bioavailability,"[3]; po, P.O., 5 mg/kg",49.7%
same,clearance,"[3]; IV, 2 mg/kg",6.08 mL/min/kg
same,Vd,"[3]; IV, 2 mg/kg",2.27 ± 0.863 L/kg
same,bioavailability,"[3]; PO, 10 mg/kg (Exp. 12-2)",> 99.9%
same,AUC(0-inf),"[3]; iv, 2 mg/kg",5490 ± 300 ng·h/mL
same,AUC(0-t),"[3]; iv, 2 mg/kg",5200 ± 548 ng·h/mL
same,half-life,"[3]; iv, 2 mg/kg, 2 mg/kg (Exp. 12-1)",6 ± 2.98 h
same,AUC(0-inf),"[3]; iv, 5 mg/kg, I.V.",14100 ± 2590 ng·h/mL
same,AUC(0-t),"[3]; iv, 5 mg/kg, I.V.",14000 ± 2550 ng·h/mL
same,half-life,"[3]; iv, 5 mg/kg, I.V., 5 mg/kg (Exp. 11-1)",3.6 ± 0.589 h
same,AUC(0-inf),"[3]; po, 5 mg/kg, P.O.",7040 ± 551 ng·h/mL
same,AUC(0-t),"[3]; po, 5 mg/kg, P.O.",6980 ± 584 ng·h/mL
same,Cmax,[3]; [11],1450 ± 255 ng/mL
same,Tmax,[3]; [11],1.33 ± 0.577 h
same,half-life,[3]; [11],3.26 ± 0.945 h
same,AUC(0-inf),[3]; [12],26700 ± 75 ng·h/mL
same,AUC(0-t),[3]; [12],26500 ± 5880 ng·h/mL
same,Cmax,[3]; [12],2710 ± 183 ng/mL
same,Tmax,[3]; [12],2.42 ± 3.13 h
same,half-life,[3]; [12],3.34 ± 0.075 h
same,AUC(0-inf),[3]; [13],41400 ± 26000 ng·h/mL
same,AUC(0-t),[3]; [13],40100 ± 26800 ng·h/mL
same,Cmax,[3]; [13],5720 ± 6110 ng/mL
same,Tmax,[3]; [13],1.33 ± 0.58 h
same,half-life,[3]; [13],4.56 ± 2.8 h
same,AUC(0-inf),[3]; [14],26700 ± 75 ng·h/mL
same,AUC(0-t),[3]; [14],26500 ± 5880 ng·h/mL
same,Cmax,[3]; [14],2710 ± 183 ng/mL
same,Tmax,[3]; [14],2.42 ± 3.13 h
same,half-life,[3]; [14],3.34 ± 0.075 h
same,"Toxicity, Genotoxicity evaluation",[4],Not detected
same,number of back-mutant colonies vs negative control group,"[4]; all doses of each strain, with and without metabolic activation",did not exceed twice the number of back-mutant colonies of the negative control group
same,weight gain or feed intake vs control group,ICR mice,No difference in weight gain or feed intake
same,death,ICR mice; 24 hrs observation,No death was observed
same,"Toxicity, Single-dose toxicity evaluation",rats [5],Not detected
same,AUC(0-inf),"[6]; iv, 2 mg/kg, G1, IV",1070 ± 620 ng·h/mL
same,AUC(0-t),"[6]; iv, 2 mg/kg, G1, IV",948 ± 464 ng·h/mL
same,half-life,"[6]; iv, 2 mg/kg, G1, IV",2.17 ± 0.867 h
same,bioavailability,"[6]; po, 10 mg/kg, G2, PO, 10 mg/kg, dissolved in a solvent",82%
same,AUC(0-inf),[6]; [15],3990 ± 1090 ng·h/mL
same,AUC(0-t),[6]; [15],3880 ± 1030 ng·h/mL
same,Cmax,[6]; [15],467 ± 73 ng/mL
same,Tmax,[6]; [15],1.67 ± 0.58 h
same,half-life,[6]; [15],4.21 ± 1.41 h
same,bioavailability,"[6]; po, 10 mg/kg, G3, PO, 10 mg/kg, powder state in a capsule",> 99.9%
same,AUC(0-inf),[6]; [16],6350 ± 830 ng·h/mL
same,AUC(0-t),[6]; [16],5640 ± 840 ng·h/mL
same,Cmax,[6]; [16],1140 ± 230 ng/mL
same,Tmax,[6]; [16],2 h
same,half-life,[6]; [16],5.53 ± 3.06 h
same,clearance,"[6]; G1, IV, 2 mg/kg",37.8 mL/min/kg
same,Vd,"[6]; G1, IV, 2 mg/kg, read-out: Vss",6.02 ± 0.79 L/kg
same,fraction unbound,[7],0.013
same,solubility kinetic,Kinetic solubility,361 µM and 149 µg/mL
same,logP,Log P,3.18
same,Plasma stability,[8],98.9%
same,"Toxicity, hERG ligand binding assay evaluation",hERG channel protein,Not detected
same,"inhibition rate, hERG ligand binding",hERG channel protein; 10 μM of the compound,≤ 50%
same,"Toxicity, Cytotoxicity evaluation",each cell line,Not detected
same,IC50,each cell line; each cell line,≥ 10 µM
same,fraction unbound,[9],0.098
same,Plasma stability,[10],> 99.9%
